Values of other authors as cited in patent publication US7060435B1, “Genotyping cytochrome expression” (Janssen Pharmaceutica, priority 1998, dated 2006).

Biological target: CYP3A4 and CYP3A5 (Homo sapiens, UniProt P08684)
Conditions: samples containing only CYP3A4

Sequence of CYP3A4 and CYP3A5 (P08684 2-503): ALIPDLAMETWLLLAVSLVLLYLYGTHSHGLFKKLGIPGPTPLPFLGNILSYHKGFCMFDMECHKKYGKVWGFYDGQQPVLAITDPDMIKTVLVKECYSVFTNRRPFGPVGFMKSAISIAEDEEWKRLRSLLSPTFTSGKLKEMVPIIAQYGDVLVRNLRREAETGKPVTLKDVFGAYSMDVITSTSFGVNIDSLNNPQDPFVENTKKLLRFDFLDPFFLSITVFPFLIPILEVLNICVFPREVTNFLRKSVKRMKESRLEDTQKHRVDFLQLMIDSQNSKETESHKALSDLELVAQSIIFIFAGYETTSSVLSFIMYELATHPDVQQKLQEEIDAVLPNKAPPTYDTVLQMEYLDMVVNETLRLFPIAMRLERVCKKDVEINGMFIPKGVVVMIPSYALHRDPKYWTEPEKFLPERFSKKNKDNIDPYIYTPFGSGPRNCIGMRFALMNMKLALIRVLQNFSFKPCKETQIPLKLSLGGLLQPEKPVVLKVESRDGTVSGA

**Q.** Which 1-OHM/4-OHM ratio does the source give for `Cc1ncc2n1-c1ccc(Cl)cc1C(c1ccccc1F)=NC2` [midazolam] here?
**A.** The 1-OHM/4-OHM ratio was under 4.
